Data taken from patent US20230241257A1, “BIOTIN-MODIFIED DIMER AND USE THEREOF” (THE UNIVERSITY OF TOKYO, priority 2020, published 2023).

Columns and labels:
[1] = system: human stomach cancer cells (MKN-45); experiment: Experiment 5: pharmacokinetics of Cupid-scFv antibody (24 h before)+^211At-psyche-BR in MKN-45 cancer-bearing mouse models; format: in vivo, mice (BALB/cSlc nu/nu)
Method: The present experiment used human stomach cancer cells (MKN-45) expressing carcinoembryonic antigen (CEA). 9-week-old male immunodeficient mice (BALB/cSlc nu/nu) were used. MKN-45 cells (1×10^7/0.1 ml) were transplanted into the mice's subcutis on the right shoulder dorsal side to produce cancer-bearing mouse models. The mice were divided into four groups when the tumor volume became a predetermined size (on Day 13 after the transplantation). The Cupid-scFv antibody was administered in 100 μmol/0.1 ml via the caudal vein of each mouse. Twenty-four hours after administration of the Cupid-scFv antibody, ^211At-psyche-BR (about 0.25 MBq/100 ml) was administered via the caudal vein of each mouse. One minute, 1 hour, 6 hours, and 24 hours after administration of the ^211At-psyche-BR, the mice were euthanized by collecting whole blood from the heart of each mouse under isoflurane anesthesia, and tumor tissues and normal tissues/organs were then excised. Normal tissues/organs: skin (lower right limb), muscle (right gastrocnemius muscle), heart, lung, spleen, pancreas, white fat (upper portion of right side testis), testis (both sides), stomach, stomach contents, small intestine (including contents), large intestine (including contents), liver, brown fat (interscapular), submandibular gland, thyroid gland (together with trachea), bone (right femur), cerebrum, eyeballs (both sides), bladder, and urine; the remaining residues were divided into three equal parts, and the three equal parts were defined to be residue-1, residue-2, and residue-3. After that, the weights of blood, plasma, urine, tumor, and normal tissues/organs were measured, and the radioactivity thereof was then measured using a γ counter. The amounts of the ^211At-psyche-BR (radioactivity) accumulated in the blood, plasma, urine, tumor, and normal tissues/organs were calculated. That is to say, the rates (% ID/g) of the ^211At-psyche-BR accumulated per unit weight (g) of the blood, plasma, urine, tumor, and normal tissues/organs, in the administered ^211At-psyche-BR were shown. Regarding accumulation of the ^211At-psyche-BR in the thyroid gland, since the weight of the thyroid gland could not be precisely measured, it was shown that the rate (% ID) of the ^211At-psyche-BR accumulated in the thyroid gland in the administered ^211At-psyche-BR.

[2] = system: human stomach cancer cells (MKN-45); experiment: Experiment 10: therapeutic effects and toxicity of Cupid-scFv antibody (24 h before)+^211At-psyche-B in MKN-45 cancer-bearing mouse models; format: in vivo, mice (BALB/cSlc nu/nu)
Method: The present experiment used human stomach cancer cells (MKN-45) expressing carcinoembryonic antigen (CEA). 9-week-old male immunodeficient mice (BALB/cSlc nu/nu) were used. MKN-45 cells (5×10^6/0.1 ml) were transplanted into the mice's subcutis on the right shoulder dorsal side to produce cancer-bearing mouse models. At the time point in which the tumor volume became a predetermined size (on Day 8 after the transplantation), the mice were divided into six groups, which were for use in the evaluation of the therapeutic effects, and a biodistribution group (6 hours) of cancer-bearing mouse models having this tumor size. The Cupid-scFv antibody was administered 100 μmol/0.1 ml via the caudal vein of each mouse. Twenty-four hours after administration of the Cupid-scFv antibody, ^211At-psyche-B was administered via the caudal vein of each mouse in an amount of 3.70 MBq, 1.85 MBq, 1.11 MBq, or 0.37 MBq.
In the present experiment, a 5.55 MBq administration group was not established. To a control group, a solvent for the ^211At-psyche-B was administered (solvent group). A group to which only cupid was administered was defined as a Cupid group. The mice's general states were observed and recorded immediately after administration of the ^211At-psyche-B and at 3 hours after the administration. Moreover, until Day 14, after administration of the ^211At-psyche-B, observation of the general states and the measurement of the body weight was carried out every day. After Day 14 of the administration of the […], observation of the general states and the measurement of the body weight was carried out every other day. The tumor size was measured every other day after the treatment with the ^211At-psyche-B. On Day 36, after the treatment with the ^211At-psyche-B, observation of the general states, the measurement of the body weight, and the measurement of the tumor size were carried out, and the mice were then euthanized by collecting whole blood from the heart of each mouse under isoflurane anesthesia. Tumor tissues and major tissues/organs were excised from the mice, weighed, and immobilized with formalin.

N=C1N[C@H]2[C@H](CS[C@H]2CCCCNC(=O)CCCCCC(=O)Nc2cc(NC(=O)CCCCCC(=O)NCCCC[C@@H]3SC[C@@H]4NC(=N)N[C@@H]43)cc(C(=O)NCCOCCOCCNC(=O)c3cccc([211At])c3)c2)N1 [^211At-psyche-BR]
Accumulation in the kidney ([1]; after 1 minute): 28.6±1.3 % ID/g
Accumulation in the liver ([1]; after 1 minute): 13.3±2.2 % ID/g
Accumulation in the lung ([1]; after 1 minute): 14.4±1.6 % ID/g
Accumulation in the spleen ([1]; after 1 minute): 4.7±0.4 % ID/g
Accumulation in the tumor ([1]; after 1 minute): 0.6±0.1 % ID/g
Clearance from the blood ([1]; after 1 minute): 46.9±1.1 % ID/g
tumor-to-blood ratio ([1]; after 1 minute): 0.01±0.00
tumor-to-muscle ratio ([1]; after 1 minute): 1.22±0.05
Accumulation in the kidney ([1]; after 1 hour): 17.1±1.4 % ID/g
Accumulation in the liver ([1]; after 1 hour): 11.4±0.7 % ID/g
Accumulation in the lung ([1]; after 1 hour): 13.2±2.2 % ID/g
Accumulation in the spleen ([1]; after 1 hour): 7.1±0.2 % ID/g
Accumulation in the tumor ([1]; after 1 hour): 3.1±0.7 % ID/g
Clearance from the blood ([1]; after 1 hour): 39.5±5.2 % ID/g
tumor-to-blood ratio ([1]; after 1 hour): 0.08±0.02
tumor-to-muscle ratio ([1]; after 1 hour): 5.11±1.81
Accumulation in the kidney ([1]; after 6 hours): 9.5±0.2 % ID/g
Accumulation in the liver ([1]; after 6 hours): 12.8±0.2 % ID/g
Accumulation in the lung ([1]; after 6 hours): 9.1±1.0 % ID/g
Accumulation in the spleen ([1]; after 6 hours): 8.4±1.0 % ID/g
Accumulation in the tumor ([1]; after 6 hours): 9.3±0.6 % ID/g
Clearance from the blood ([1]; after 6 hours): 25.3±1.0 % ID/g
tumor-to-blood ratio ([1]; after 6 hours): 0.7±0.02
tumor-to-muscle ratio ([1]; after 6 hours): 12.80±1.86
Accumulation in the thyroid gland ([1]; after 24 h): 0.15±0.05 % ID
Accumulation in the kidney ([1]; after 24 hours): 5.4±0.5%
Accumulation in the liver ([1]; after 24 hours): 7.8±0.9%
Accumulation in the lung ([1]; after 24 hours): 5.3±0.1%
Accumulation in the spleen ([1]; after 24 hours): 5.5±1.1%
Accumulation in the tumor ([1]; after 24 hours): 18.4±2.5%
Clearance from the blood ([1]; after 24 hours): 8.3±0.5 % ID/g
amount administered excreted (blood) ([1]; after 24 hours): about 92%
tumor-to-blood ratio ([1]; after 24 hours): 2.23±0.41
tumor-to-muscle ratio ([1]; after 24 hours): 25.07±3.68

N=C1N[C@H]2[C@H](CS[C@H]2CCCCC(=O)NCCCCCC(=O)Nc2cc(NC(=O)CCCCCNC(=O)CCCC[C@@H]3SC[C@@H]4NC(=N)N[C@@H]43)cc(C(=O)NCCOCCOCCNC(=O)c3cccc([211At])c3)c2)N1 [^211At-psyche-B]
body weight reduction ([2]; 0.37 MBq, before Day 10): body weight reduction was lower than that in the 1.11 MBq
body weight reduction ([2]; 0.37 MBq, on and after Day 10): the body weight reduction was the same as in the 1.11 MBq
tumor growth compared with the control group ([2]; 0.37 MBq, until Day 10): tumor growth was suppressed
body weight recovery ([2]; 1.11 MBq, after Day 5): the body weight was not recovered to the same level as the control groups
body weight ([2]; 1.11 MBq, until Day 5): the body weight was slightly reduced
tumor growth compared with the control group ([2]; 1.11 MBq, until Day 10): tumor growth was suppressed
tumor growth compared with the control group ([2]; 1.85, 1.11 and 0.37 MBq, after Day 10): the tumor growth was suppressed in an amount-dependent manner
general states and body weight ([2]; 1.85 MBq, Day 5): general states and body weight reduction became significantly severe
mortality ([2]; 1.85 MBq, Day 10): one mouse died
recovery of general states ([2]; 1.85 MBq, Day 26): the mice were completely recovered
skin findings ([2]; 1.85 MBq, on and after Day 6 until Day 12): red spots were dispersed on the skin
tumor growth compared with the control group ([2]; 1.85 MBq, until Day 10): tumor growth was suppressed
general states and body weight ([2]; 3.70 MBq, Day 5, urgent euthanasia): general states and body weight reduction became severe
